According to PubChem BioAssay (NCI):
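Step 1: Grow cells in 96-well plates. Step 2: Expose to compound for 48 hours at 5 concentrations. Step 3: Interpolate endpoints linearly; if unreached, use highest concentration. Definition used: TGI = concentration required for complete inhibition of growth.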

What was measured:
Experiment in all cases: DTP human tumour cell line panel, 48 h
[1] = system: U251 CNS
[2] = system: HOP-62 NSCLC
[3] = system: SNB-78 CNS
[4] = system: M14 melanoma
[5] = system: SK-MEL-5 melanoma
[6] = system: SK-MEL-2 melanoma
[7] = system: OVCAR-3 ovarian
[8] = system: DLD-1 colon
[9] = system: HL-60(TB) leukemia
[10] = system: 786-0 renal
[11] = system: A549 NSCLC
[12] = system: RXF 393 renal
[13] = system: SF-295 CNS
[14] = system: SW-620 colon
[15] = system: SF-539 CNS
[16] = system: MOLT-4 leukemia
[17] = system: DMS 273 small cell lung
[18] = system: NCI-H522 lung
[19] = system: EKVX NSCLC
[20] = system: HCT-15 colon
[21] = system: KM12 colon
[22] = system: OVCAR-4 ovarian
[23] = system: NCI-H460 lung
[24] = system: NCI-H226 lung
[25] = system: COLO 205 colon
[26] = system: HCC-2998 colon
[27] = system: KM20L2 colon
[28] = system: XF 498 CNS
[29] = system: SK-OV-3 ovarian
[30] = system: SNB-75 CNS
[31] = system: UO-31 renal
[32] = system: K-562 leukemia
[33] = system: LOX IMVI melanoma
[34] = system: TK-10 renal
[35] = system: HOP-92 NSCLC
[36] = system: LXFL 529 NSCLC
[37] = system: UACC-62 melanoma
[38] = system: SF-268 CNS
[39] = system: NCI-H23 lung
[40] = system: OVCAR-8 ovarian
[41] = system: MALME-3M melanoma
[42] = system: IGROV1 ovarian
[43] = system: CCRF-CEM leukemia
[44] = system: SK-MEL-28 melanoma
[45] = system: SR leukemia
[46] = system: M19-MEL melanoma
[47] = system: ACHN renal
[48] = system: SN12C renal
[49] = system: HT29 colon
[50] = system: UACC-257 melanoma
[51] = system: SNB-19 CNS
[52] = system: MDA-N
[53] = system: T-47D breast
[54] = system: MCF7 breast
[55] = system: CAKI-1 renal
[56] = system: RPMI-8226 leukemia
[57] = system: MDA-MB-231 breast
[58] = system: A498 renal
[59] = system: PC-3 prostate
[60] = system: HCT-116 colon
[61] = system: OVCAR-5 ovarian
[62] = system: MDA-MB-435
[63] = system: DMS 114 small cell lung
[64] = system: BT-549 breast
[65] = system: NCI/ADR-RES ovarian
[66] = system: HOP-18 NSCLC
[67] = system: DU-145 prostate
[68] = system: HS 578T breast

CCC(C)Cn1c(C)nc2c1C(=O)c1ccccc1C2=O (centres undefined)
TGI [1]: > 100 µM
TGI [2]: > 100 µM
TGI [3]: > 100 µM
TGI [4]: > 100 µM
TGI [5]: 29.6 µM
TGI [6]: 76.5 µM
TGI [7]: 66.7 µM
TGI [8]: > 100 µM
TGI [9]: 28.5 µM
TGI [10]: 75.4 µM
TGI [11]: > 100 µM
TGI [12]: > 100 µM
TGI [13]: > 100 µM
TGI [14]: > 100 µM
TGI [15]: 59.5 µM
TGI [16]: > 100 µM
TGI [17]: 64 µM
TGI [18]: > 100 µM
TGI [19]: > 100 µM
TGI [20]: > 100 µM
TGI [21]: > 100 µM
TGI [22]: > 100 µM
TGI [23]: 34.3 µM
TGI [24]: > 100 µM
TGI [25]: 87.5 µM
TGI [26]: > 100 µM
TGI [27]: > 100 µM
TGI [28]: 56 µM
TGI [29]: > 100 µM
TGI [30]: > 100 µM
TGI [31]: 87.8 µM
TGI [32]: > 100 µM
TGI [33]: 66.7 µM
TGI [34]: > 100 µM
TGI [35]: 78.9 µM
TGI [36]: > 100 µM
TGI [37]: 27.5 µM
TGI [38]: > 100 µM
TGI [39]: 48.4 µM
TGI [40]: > 100 µM
TGI [41]: 73.7 µM
TGI [42]: > 100 µM
TGI [43]: 96.8 µM
TGI [44]: > 100 µM
TGI [45]: > 100 µM
TGI [46]: 33.9 µM
TGI [47]: > 100 µM
TGI [48]: > 100 µM
TGI [49]: > 100 µM
TGI [50]: 62.3 µM
TGI [51]: > 100 µM

O=C(O)CNCc1c2ccccc2nc2ccccc12
TGI [1]: > 100 µM
TGI [52]: > 100 µM
TGI [2]: > 100 µM
TGI [3]: > 100 µM
TGI [4]: > 100 µM
TGI [53]: > 100 µM
TGI [5]: > 60.4 µM
TGI [54]: > 100 µM
TGI [6]: > 100 µM
TGI [7]: > 100 µM
TGI [8]: > 100 µM
TGI [9]: 29.6 µM
TGI [10]: > 95.4 µM
TGI [11]: > 100 µM
TGI [12]: > 78.3 µM
TGI [13]: > 100 µM
TGI [14]: > 100 µM
TGI [15]: 87.2 µM
TGI [55]: > 90.8 µM
TGI [16]: 44.9 µM
TGI [17]: > 100 µM
TGI [18]: 57.5 µM
TGI [19]: > 100 µM
TGI [20]: > 100 µM
TGI [21]: > 100 µM
TGI [56]: 71.9 µM
TGI [22]: > 89.8 µM
TGI [23]: > 86.7 µM
TGI [24]: > 100 µM
TGI [25]: > 100 µM
TGI [26]: > 100 µM
TGI [27]: 91.1 µM
TGI [57]: > 100 µM
TGI [28]: > 77.6 µM
TGI [29]: > 100 µM
TGI [58]: > 100 µM
TGI [59]: > 100 µM
TGI [30]: > 79.4 µM
TGI [31]: > 91.5 µM
TGI [32]: > 82.7 µM
TGI [60]: > 45.5 µM
TGI [61]: > 100 µM
TGI [62]: > 100 µM
TGI [63]: 72.7 µM
TGI [33]: > 100 µM
TGI [34]: > 100 µM
TGI [35]: 85.4 µM
TGI [36]: > 71 µM
TGI [37]: > 100 µM
TGI [64]: > 100 µM
TGI [38]: > 100 µM
TGI [39]: > 100 µM
TGI [65]: > 100 µM
TGI [40]: > 100 µM
TGI [41]: > 100 µM
TGI [42]: > 100 µM
TGI [66]: > 100 µM
TGI [43]: 41.2 µM
TGI [44]: > 100 µM
TGI [67]: > 100 µM
TGI [45]: > 70.5 µM
TGI [46]: > 100 µM
TGI [47]: > 100 µM
TGI [48]: > 100 µM
TGI [49]: > 84.8 µM
TGI [68]: > 100 µM
TGI [50]: > 94.9 µM
TGI [51]: > 100 µM

Cc1nc(=O)n2c(c1C(=O)Nc1ccc(Cl)cc1)NCCC2
TGI [1]: > 100 µM
TGI [2]: > 100 µM
TGI [3]: > 100 µM
TGI [4]: > 100 µM
TGI [6]: > 100 µM
TGI [7]: > 100 µM
TGI [9]: > 100 µM
TGI [10]: > 100 µM
TGI [11]: > 100 µM
TGI [12]: > 100 µM
TGI [13]: > 100 µM
TGI [14]: > 100 µM
TGI [15]: > 100 µM
TGI [55]: > 100 µM
TGI [16]: > 100 µM
TGI [18]: > 100 µM
TGI [19]: > 100 µM
TGI [20]: > 100 µM
TGI [21]: > 100 µM
TGI [56]: > 100 µM
TGI [22]: > 100 µM
TGI [23]: > 100 µM
TGI [24]: > 100 µM
TGI [25]: > 100 µM
TGI [28]: > 100 µM
TGI [29]: > 100 µM
TGI [32]: > 100 µM
TGI [60]: > 100 µM
TGI [61]: > 100 µM
TGI [63]: > 100 µM
TGI [33]: > 100 µM
TGI [34]: > 100 µM
TGI [35]: > 100 µM
TGI [36]: > 100 µM
TGI [37]: > 100 µM
TGI [38]: > 100 µM
TGI [39]: > 100 µM
TGI [40]: > 100 µM
TGI [41]: > 100 µM
TGI [42]: > 100 µM
TGI [43]: > 100 µM
TGI [44]: > 100 µM
TGI [45]: > 100 µM
TGI [46]: > 100 µM
TGI [47]: > 100 µM
TGI [48]: > 100 µM
TGI [49]: > 100 µM
TGI [51]: > 100 µM

Cc1cc(N)c2cc(NC(=O)CCCCCCCCC(=O)Nc3ccc4nc(C)cc(N)c4c3)ccc2n1
TGI [1]: 49.3 µM
TGI [2]: > 100 µM
TGI [3]: > 100 µM
TGI [4]: > 100 µM
TGI [5]: > 100 µM
TGI [6]: > 100 µM
TGI [7]: > 100 µM
TGI [8]: > 100 µM
TGI [9]: > 100 µM
TGI [10]: > 100 µM
TGI [11]: > 31.6 µM
TGI [12]: > 100 µM
TGI [13]: > 88.7 µM
TGI [14]: > 100 µM
TGI [15]: 26.5 µM
TGI [55]: > 100 µM
TGI [16]: > 39.8 µM
TGI [17]: > 45.3 µM
TGI [18]: 5.36 µM
TGI [19]: > 89 µM
TGI [20]: > 100 µM
TGI [21]: > 68.4 µM
TGI [56]: > 100 µM
TGI [22]: > 100 µM
TGI [23]: > 100 µM
TGI [24]: 56.3 µM
TGI [25]: > 100 µM
TGI [26]: > 82.9 µM
TGI [27]: > 74.3 µM
TGI [28]: > 100 µM
TGI [29]: > 100 µM
TGI [58]: 74 µM
TGI [30]: > 100 µM
TGI [31]: > 100 µM
TGI [32]: > 100 µM
TGI [60]: > 79 µM
TGI [61]: > 100 µM
TGI [33]: > 100 µM
TGI [34]: > 100 µM
TGI [35]: 80.3 µM
TGI [36]: > 100 µM
TGI [37]: > 100 µM
TGI [38]: > 100 µM
TGI [39]: > 100 µM
TGI [40]: > 100 µM
TGI [41]: 68.8 µM
TGI [42]: > 100 µM
TGI [66]: > 100 µM
TGI [43]: > 61.3 µM
TGI [44]: 97 µM
TGI [45]: > 100 µM
TGI [46]: > 100 µM
TGI [47]: > 100 µM
TGI [48]: 26.6 µM
TGI [49]: > 100 µM
TGI [50]: 96.9 µM
TGI [51]: > 100 µM
